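1) Cells in 96-well plates. 2) Compound, 48 h, 5 concentrations. 3) Linear interpolation between surrounding doses. 4) Unreached endpoint = highest concentration. The concentration for 50% growth inhibition is given as GI50. TGI: total growth inhibition.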
Experiments:
Test in all cases: growth of human tumour cells (NCI), 48 h
[1] = system: HCT-15 colon
[2] = system: UO-31 renal
[3] = system: SK-MEL-28 melanoma
[4] = system: UACC-257 melanoma
[5] = system: NCI-H226 lung
[6] = system: OVCAR-8 ovarian
[7] = system: M14 melanoma
[8] = system: UACC-62 melanoma
[9] = system: HOP-62 NSCLC
[10] = system: NCI/ADR-RES ovarian
[11] = system: OVCAR-4 ovarian
[12] = system: OVCAR-3 ovarian
[13] = system: COLO 205 colon
[14] = system: T-47D breast
[15] = system: SK-MEL-2 melanoma
[16] = system: SF-539 CNS
[17] = system: MDA-MB-231 breast
[18] = system: BT-549 breast
[19] = system: HCC-2998 colon
[20] = system: HOP-92 NSCLC
[21] = system: CCRF-CEM leukemia
[22] = system: ACHN renal
[23] = system: MDA-MB-435
[24] = system: RXF 393 renal
[25] = system: MCF7 breast
[26] = system: SF-268 CNS
[27] = system: A498 renal
[28] = system: SNB-19 CNS
[29] = system: 786-0 renal
[30] = system: HT29 colon
[31] = system: MALME-3M melanoma
[32] = system: SK-MEL-5 melanoma
[33] = system: KM12 colon
[34] = system: LOX IMVI melanoma
[35] = system: SNB-75 CNS
[36] = system: NCI-H522 lung
[37] = system: SN12C renal
[38] = system: SW-620 colon
[39] = system: HS 578T breast
[40] = system: K-562 leukemia
[41] = system: SF-295 CNS
[42] = system: RPMI-8226 leukemia
[43] = system: EKVX NSCLC
[44] = system: HL-60(TB) leukemia
[45] = system: PC-3 prostate
[46] = system: A549 NSCLC
[47] = system: NCI-H23 lung
[48] = system: SR leukemia
[49] = system: SK-OV-3 ovarian
[50] = system: TK-10 renal
[51] = system: MOLT-4 leukemia
[52] = system: DU-145 prostate
[53] = system: NCI-H460 lung
[54] = system: CAKI-1 renal
[55] = system: HCT-116 colon
[56] = system: OVCAR-5 ovarian
[57] = system: U251 CNS
[58] = system: IGROV1 ovarian

Question: With `Cc1ccc(-c2c(C#N)[n+](=O)c3cc(Cl)c(Cl)cc3n2[O-])cc1` as the compound, how does the GI50 [1] read?
Answer: The GI50 was 29.9 µM.

Question: And the TGI [1]?
Answer: Its TGI is greater than 100 µM.

Question: What about the GI50 [2] of the same compound?
Answer: Its GI50 is 13.6 µM.

Question: And the TGI [2]?
Answer: The TGI was 35.7 µM.

Question: What about the GI50 [3] of the same compound?
Answer: Its GI50 is 3.98 µM.

Question: What about the TGI [3] of the same compound?
Answer: Its TGI is 13.5 µM.

Question: What about the GI50 [4] of the same compound?
Answer: The GI50 was 4.89 µM.

Question: And the TGI [4]?
Answer: Its TGI is 9.77 µM.

Question: What about the GI50 [5] of the same compound?
Answer: Its GI50 is 40.4 µM.

Question: What about the TGI [5] of the same compound?
Answer: Its TGI is greater than 100 µM.

Question: And the GI50 [6]?
Answer: The GI50 was 7.39 µM.

Question: What about the TGI [6] of the same compound?
Answer: Its TGI is 23.1 µM.

Question: What about the GI50 [7] of the same compound?
Answer: The GI50 was 4.95 µM.

Question: And the TGI [7]?
Answer: The TGI was 19.2 µM.

Question: And the GI50 [8]?
Answer: Its GI50 is greater than 47 µM.

Question: And the TGI [8]?
Answer: The TGI was greater than 69.4 µM.

Question: And the GI50 [9]?
Answer: Its GI50 is 10.3 µM.

Question: What about the TGI [9] of the same compound?
Answer: Its TGI is 26.7 µM.

Question: What about the GI50 [10] of the same compound?
Answer: Its GI50 is 5.86 µM.

Question: And the TGI [10]?
Answer: Its TGI is 17.3 µM.

Question: What about the GI50 [11] of the same compound?
Answer: The GI50 was 10.8 µM.

Question: And the TGI [11]?
Answer: Its TGI is 30.4 µM.

Question: And the GI50 [12]?
Answer: Its GI50 is 8.29 µM.

Question: What about the TGI [12] of the same compound?
Answer: Its TGI is 23.5 µM.

Question: And the GI50 [13]?
Answer: The GI50 was 8.97 µM.

Question: What about the TGI [13] of the same compound?
Answer: The TGI was 24.2 µM.

Question: What about the GI50 [14] of the same compound?
Answer: Its GI50 is 5.98 µM.

Question: And the TGI [14]?
Answer: The TGI was 16.3 µM.

Question: What about the GI50 [15] of the same compound?
Answer: The GI50 was 17.3 µM.

Question: What about the TGI [15] of the same compound?
Answer: The TGI was 34.7 µM.

Question: And the GI50 [16]?
Answer: Its GI50 is 16.1 µM.

Question: And the TGI [16]?
Answer: Its TGI is 35 µM.

Question: What about the GI50 [17] of the same compound?
Answer: Its GI50 is 3.49 µM.

Question: What about the GI50 [18] of the same compound?
Answer: Its GI50 is 16.1 µM.

Question: What about the TGI [18] of the same compound?
Answer: Its TGI is 35.5 µM.

Question: And the GI50 [19]?
Answer: Its GI50 is 4.76 µM.

Question: What about the TGI [19] of the same compound?
Answer: Its TGI is 11.6 µM.

Question: What about the GI50 [20] of the same compound?
Answer: The GI50 was 6 µM.

Question: And the TGI [20]?
Answer: The TGI was 13.7 µM.

Question: And the GI50 [21]?
Answer: The GI50 was 2.95 µM.

Question: And the TGI [21]?
Answer: Its TGI is 15.6 µM.

Question: What about the GI50 [22] of the same compound?
Answer: Its GI50 is 5.27 µM.

Question: What about the GI50 [23] of the same compound?
Answer: Its GI50 is 17.2 µM.

Question: And the TGI [23]?
Answer: The TGI was 35.2 µM.

Question: And the GI50 [24]?
Answer: The GI50 was 5.53 µM.

Question: And the TGI [24]?
Answer: Its TGI is 12.6 µM.

Question: What about the GI50 [25] of the same compound?
Answer: The GI50 was 13.6 µM.

Question: What about the TGI [25] of the same compound?
Answer: Its TGI is 34.9 µM.

Question: And the GI50 [26]?
Answer: Its GI50 is 5.16 µM.

Question: What about the TGI [26] of the same compound?
Answer: The TGI was 18 µM.

Question: And the GI50 [27]?
Answer: Its GI50 is 16.3 µM.

Question: And the TGI [27]?
Answer: Its TGI is 30.4 µM.

Question: And the GI50 [28]?
Answer: Its GI50 is 14.4 µM.

Question: And the TGI [28]?
Answer: The TGI was greater than 47.1 µM.

Question: And the GI50 [29]?
Answer: The GI50 was 13.4 µM.

Question: What about the TGI [29] of the same compound?
Answer: Its TGI is 30.1 µM.

Question: What about the GI50 [30] of the same compound?
Answer: The GI50 was 2.94 µM.

Question: And the TGI [30]?
Answer: The TGI was 11 µM.

Question: And the GI50 [31]?
Answer: The GI50 was 7 µM.

Question: What about the TGI [31] of the same compound?
Answer: The TGI was 25.2 µM.

Question: And the GI50 [32]?
Answer: The GI50 was 13.9 µM.

Question: What about the TGI [32] of the same compound?
Answer: Its TGI is 27.2 µM.

Question: And the GI50 [33]?
Answer: The GI50 was 6.05 µM.

Question: And the TGI [33]?
Answer: Its TGI is 26.6 µM.

Question: What about the GI50 [34] of the same compound?
Answer: The GI50 was 27.1 µM.

Question: And the TGI [34]?
Answer: The TGI was greater than 100 µM.

Question: What about the GI50 [35] of the same compound?
Answer: Its GI50 is 18.2 µM.

Question: And the TGI [35]?
Answer: Its TGI is 38.2 µM.

Question: What about the GI50 [36] of the same compound?
Answer: The GI50 was 12.9 µM.

Question: What about the TGI [36] of the same compound?
Answer: The TGI was greater than 67.4 µM.

Question: What about the GI50 [37] of the same compound?
Answer: Its GI50 is 30.5 µM.

Question: What about the TGI [37] of the same compound?
Answer: The TGI was 85.6 µM.

Question: What about the GI50 [38] of the same compound?
Answer: The GI50 was 5.08 µM.

Question: And the TGI [38]?
Answer: Its TGI is 11.8 µM.

Question: What about the GI50 [39] of the same compound?
Answer: The GI50 was 10.3 µM.

Question: And the TGI [39]?
Answer: Its TGI is 48.9 µM.

Question: What about the GI50 [40] of the same compound?
Answer: Its GI50 is 2.56 µM.

Question: What about the GI50 [41] of the same compound?
Answer: Its GI50 is 19.4 µM.

Question: And the TGI [41]?
Answer: Its TGI is 37.9 µM.

Question: And the GI50 [42]?
Answer: Its GI50 is 4.76 µM.

Question: What about the TGI [42] of the same compound?
Answer: The TGI was 16.7 µM.

Question: And the GI50 [43]?
Answer: The GI50 was 21.5 µM.

Question: And the TGI [43]?
Answer: The TGI was 45.4 µM.

Question: What about the GI50 [44] of the same compound?
Answer: Its GI50 is 2.5 µM.

Question: What about the TGI [44] of the same compound?
Answer: Its TGI is greater than 100 µM.

Question: What about the GI50 [45] of the same compound?
Answer: Its GI50 is 6.88 µM.

Question: What about the TGI [45] of the same compound?
Answer: Its TGI is 18.5 µM.

Question: And the GI50 [46]?
Answer: Its GI50 is 8.32 µM.

Question: And the TGI [46]?
Answer: The TGI was 23.3 µM.

Question: What about the GI50 [47] of the same compound?
Answer: Its GI50 is 5.46 µM.

Question: What about the TGI [47] of the same compound?
Answer: The TGI was 13.1 µM.

Question: What about the GI50 [48] of the same compound?
Answer: The GI50 was 2.13 µM.

Question: And the TGI [48]?
Answer: Its TGI is greater than 100 µM.

Question: And the GI50 [49]?
Answer: Its GI50 is 21.6 µM.

Question: What about the TGI [49] of the same compound?
Answer: Its TGI is 47.1 µM.

Question: And the GI50 [50]?
Answer: The GI50 was 16.7 µM.

Question: And the TGI [50]?
Answer: The TGI was 32.9 µM.

Question: What about the GI50 [51] of the same compound?
Answer: Its GI50 is 1.55 µM.

Question: What about the TGI [51] of the same compound?
Answer: Its TGI is 3.41 µM.

Question: And the GI50 [52]?
Answer: Its GI50 is 17 µM.

Question: What about the TGI [52] of the same compound?
Answer: Its TGI is 33.2 µM.

Question: What about the GI50 [53] of the same compound?
Answer: Its GI50 is 20 µM.

Question: And the TGI [53]?
Answer: The TGI was 41.3 µM.

Question: What about the GI50 [54] of the same compound?
Answer: The GI50 was 16.9 µM.

Question: What about the TGI [54] of the same compound?
Answer: Its TGI is 32.2 µM.

Question: What about the GI50 [55] of the same compound?
Answer: The GI50 was 2.16 µM.

Question: What about the GI50 [56] of the same compound?
Answer: Its GI50 is 6.02 µM.

Question: What about the TGI [56] of the same compound?
Answer: Its TGI is 14.7 µM.

Question: What about the GI50 [57] of the same compound?
Answer: Its GI50 is 34.6 µM.

Question: What about the TGI [57] of the same compound?
Answer: Its TGI is greater than 100 µM.

Question: What about the GI50 [58] of the same compound?
Answer: Its GI50 is 3.41 µM.

Question: What about the TGI [58] of the same compound?
Answer: Its TGI is greater than 36.9 µM.

From PubChem BioAssay (NCI)
